Reference: ChEMBL document CHEMBL4265952, “One-pot, multi-component synthesis and structure-activity relationships of peptoid-based histone deacetylase (HDAC) inhibitors targeting malaria parasites” (Eur J Med Chem, 2018)
pIC50: −log10 of the molar value. Blank lines part the entries; values can stand above or below the compound they belong to.

Columns and labels:
[1] = biological target: Histone deacetylase 1 (Homo sapiens, UniProt Q13547); assay: Inhibition of recombinant full length human C-terminal His/FLAG tagged HDAC1 expressed in baculovirus infected Sf9 insect cells using ZMAL as substrate measured after 90 mins by fluorescence assay
[2] = test system: Plasmodium falciparum; assay: Gametocytocidal activity against synchronized Plasmodium falciparum NF54 mature stage 5 gametocytes after 48 hrs by ATP bioluminescence assay; assay type: functional, organism-based; conditions: NF54, 48 h
[3] = test system: NFF; assay: cells; conditions: Homo sapiens
Description: Cytotoxicity against human NFF cells

[4] = Cytotoxicity against human HepG2A16 cells expressing GFP-fused CD81 after 48 hrs by bioluminescence assay; conditions: HepG2A16, 48 h
[5] = test system: Plasmodium berghei; assay: Antiplasmodial activity against exo-erythrocytic stage of GFP-Luc-fused Plasmodium berghei ANKA infected in human HepG2 cells after 48 hrs by bioluminescence assay; conditions: HepG2, 48 h
[6] = test system: Plasmodium falciparum; assay: Gametocytocidal activity against transgenic GFP-fused Plasmodium falciparum NF54 late stage gametocytes after 72 hrs by Mitotracker Red CMH2XRos staining based imaging method; assay type: functional, organism-based; conditions: NF54, 72 h
[7] = test system: Plasmodium falciparum; assay: Gametocytocidal activity against transgenic GFP-fused Plasmodium falciparum NF54 early stage gametocytes after 72 hrs by Mitotracker Red CMH2XRos staining based imaging method; assay type: functional, organism-based; conditions: NF54, 72 h
[8] = test system: Plasmodium falciparum; assay: microbe, parasite or virus in culture; conditions: Dd2, 3 h
Description: Antiplasmodial activity against multidrug-resistant asexual ring stage Plasmodium falciparum Dd2 infected in human erythrocytes by [3H]-hypoxanthine incorporation assay

[9] = biological target: T1, Protein deacetylase HDAC6 (Homo sapiens, UniProt Q9UBN7); assay: Inhibition of recombinant full length human N-terminal GST-tagged HDAC6 expressed in baculovirus infected Sf9 insect cells using ZMAL as substrate measured after 90 mins by fluorescence assay
T1 sequence (Q9UBN7 whole entry): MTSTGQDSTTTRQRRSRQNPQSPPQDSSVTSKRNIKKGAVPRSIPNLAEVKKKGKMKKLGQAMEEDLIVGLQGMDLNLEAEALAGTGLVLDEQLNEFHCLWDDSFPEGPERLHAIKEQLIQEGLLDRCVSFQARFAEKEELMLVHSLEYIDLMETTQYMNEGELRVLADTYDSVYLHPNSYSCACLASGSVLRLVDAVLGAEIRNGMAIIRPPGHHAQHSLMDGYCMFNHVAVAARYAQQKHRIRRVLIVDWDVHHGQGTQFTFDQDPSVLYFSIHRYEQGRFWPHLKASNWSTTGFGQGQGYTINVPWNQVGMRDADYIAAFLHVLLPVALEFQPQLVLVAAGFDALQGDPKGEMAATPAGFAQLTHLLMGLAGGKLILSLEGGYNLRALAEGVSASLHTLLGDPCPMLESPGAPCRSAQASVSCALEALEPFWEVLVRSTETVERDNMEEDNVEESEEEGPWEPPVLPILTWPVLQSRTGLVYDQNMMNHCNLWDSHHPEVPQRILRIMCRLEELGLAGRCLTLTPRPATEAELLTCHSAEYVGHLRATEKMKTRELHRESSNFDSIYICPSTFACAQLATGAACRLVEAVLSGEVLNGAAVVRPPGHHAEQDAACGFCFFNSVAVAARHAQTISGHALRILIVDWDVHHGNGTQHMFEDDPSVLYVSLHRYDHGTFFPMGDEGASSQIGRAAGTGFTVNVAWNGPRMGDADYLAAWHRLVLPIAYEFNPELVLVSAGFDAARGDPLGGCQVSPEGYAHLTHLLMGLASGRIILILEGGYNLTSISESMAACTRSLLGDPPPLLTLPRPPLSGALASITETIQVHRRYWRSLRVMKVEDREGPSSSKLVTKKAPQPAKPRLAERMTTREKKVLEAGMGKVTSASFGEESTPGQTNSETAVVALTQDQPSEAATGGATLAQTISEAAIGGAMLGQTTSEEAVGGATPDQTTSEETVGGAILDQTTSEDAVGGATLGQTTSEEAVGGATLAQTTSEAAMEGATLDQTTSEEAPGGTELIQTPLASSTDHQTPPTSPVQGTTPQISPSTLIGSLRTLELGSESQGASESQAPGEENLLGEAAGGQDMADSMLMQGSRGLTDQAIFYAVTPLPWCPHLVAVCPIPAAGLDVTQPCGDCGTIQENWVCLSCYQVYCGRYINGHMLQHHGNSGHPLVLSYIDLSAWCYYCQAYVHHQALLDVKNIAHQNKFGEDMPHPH

[10] = test system: Plasmodium falciparum; assay: Gametocytocidal activity against transgenic GFP-fused Plasmodium falciparum NF54 late stage gametocytes at 40 uM after 72 hrs by Mitotracker Red CMH2XRos staining based imaging method relative to control; assay type: functional
[11] = in vitro; conditions: human
Description: Selectivity index, ratio of IC50 for human NFF cells to IC50 for multidrug-resistant asexual ring stage Plasmodium falciparum Dd2 infected in human erythrocytes

[12] = in vitro; conditions: human; remark: listed apart in the source
Description: Selectivity index, ratio of IC50 for human NFF cells to IC50 for drug-sensitive asexual ring stage Plasmodium falciparum 3D7 infected in human erythrocytes

[13] = test system: Plasmodium falciparum; assay: microbe, parasite or virus in culture; conditions: 3D7, 3 h
Description: Antiplasmodial activity against drug-sensitive asexual ring stage Plasmodium falciparum 3D7 infected in human erythrocytes by [3H]-hypoxanthine incorporation assay

[14] = Selectivity index, ratio of IC50 for human HepG2A16 cells to IC50 for exo-erythrocytic stage of GFP-Luc-fused Plasmodium berghei ANKA infected in human HepG2 cells
[15] = test system: HEK293; assay: Cytotoxicity against HEK293 cells after 48 hrs by resazurin dye based assay; assay type: ADME, cell-based; conditions: Homo sapiens, HEK293, 48 h
[16] = test system: Plasmodium falciparum; assay type: functional, organism-based; conditions: Dd2
[17] = test system: NFF; assay type: ADME, cell-based; conditions: Homo sapiens, 72 h
[18] = test system: Plasmodium falciparum; assay type: functional, organism-based; conditions: 3D7
[19] = test system: Plasmodium falciparum; assay: Antiplasmodial activity against Plasmodium falciparum

Sequence of Histone deacetylase 1 (Q13547 whole entry): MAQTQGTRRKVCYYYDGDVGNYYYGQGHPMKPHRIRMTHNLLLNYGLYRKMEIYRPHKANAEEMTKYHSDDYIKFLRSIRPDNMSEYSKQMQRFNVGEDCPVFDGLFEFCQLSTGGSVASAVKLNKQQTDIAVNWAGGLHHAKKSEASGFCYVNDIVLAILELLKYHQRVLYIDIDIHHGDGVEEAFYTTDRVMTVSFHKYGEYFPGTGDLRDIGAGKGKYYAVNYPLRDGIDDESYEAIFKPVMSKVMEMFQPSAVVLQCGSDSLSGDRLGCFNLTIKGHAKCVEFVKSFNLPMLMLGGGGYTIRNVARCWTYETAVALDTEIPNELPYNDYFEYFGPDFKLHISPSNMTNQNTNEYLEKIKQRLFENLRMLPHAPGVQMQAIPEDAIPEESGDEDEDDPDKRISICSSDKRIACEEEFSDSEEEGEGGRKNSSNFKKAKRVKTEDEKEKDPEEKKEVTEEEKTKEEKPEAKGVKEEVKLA

Compound: Cc1ccc(NC(=O)CN(Cc2ccc(C(=O)NO)cc2)C(=O)c2ccc(N(C)C)cc2)cc1
- pIC50 [1]: 7.10

Compound: Cc1ccc(NC(=O)CN(Cc2ccc(C(=O)NO)cc2)C(=O)c2cc(C)cc(C)c2)cc1
- pIC50 [2]: 5.00
- pIC50 [3]: < 5.00
- pIC50 [4]: 4.67
- pIC50 [5]: 5.26
- pIC50 [6]: 5.14
- pIC50 [7]: 5.12
- pIC50 [8]: 7.57

Compound: CCCCNC(=O)CN(Cc1ccc(C(=O)NO)cc1)C(=O)c1ccc(N(C)C)cc1
- pIC50 [9]: 7.46
- pIC50 [1]: 7.40

Compound: O=C(CN(Cc1ccc(C(=O)NO)cc1)C(=O)c1cccc2ccccc12)NC1CCCCC1
- pIC50 [1]: 6.26

Compound: Cc1ccc(C(=O)N(CC(=O)NC2CCCCC2)Cc2ccc(C(=O)NO)cc2)cc1C
- pIC50 [1]: 6.52

Compound: Cc1ccc(C(=O)N(CC(=O)NC(C)(C)C)Cc2ccc(C(=O)NO)cc2)cc1C
- pIC50 [9]: 7.24
- pIC50 [1]: 6.37
- Activity [10]: 92%

Compound: Cc1ccc(NC(=O)CN(Cc2ccc(C(=O)NO)cc2)C(=O)c2cccc3ccccc23)cc1
- pIC50 [3]: < 5.00
- selectivity ratio [11]: 256 to 303
- selectivity ratio [12]: 256 to 303
- pIC50 [13]: 7.41
- pIC50 [8]: 7.48

Compound: CC(C)c1ccc(C(=O)N(CC(=O)NC2CCCCC2)Cc2ccc(C(=O)NO)cc2)cc1
- pIC50 [9]: 7.19
- pIC50 [1]: 7.07

- pIC50 [5]: 10.85
Compound: O=C1C(O)=C([C@H]2CC[C@H](c3ccc(Cl)cc3)CC2)C(=O)c2ccccc21 [ATOVAQUONE]
- pIC50 [4]: < 6.30
- selectivity ratio [14]: > 35000

- pIC50 [16]: 6.89 to 7.22
- pIC50 [17]: 5.63 to 5.85
- pIC50 [18]: 6.89 to 7.22
Compound: O=C(/C=C/c1cccc(S(=O)(=O)Nc2ccccc2)c1)NO [BELINOSTAT]
- pIC50 [15]: 5.63 to 5.85

Compound: CC[C@H](C)[C@H](NC(=O)[C@H]([C@@H](C)CC)N(C)C(C)=O)C(=O)N[C@H](C(=O)N[C@@H](CC(C)C)C(=O)[C@@]1(C)CO1)[C@@H](C)O [EPOXOMYCIN]
- pIC50 [2]: 8.15

Compound: CN(C)c1ccc2nc3ccc(N(C)C)cc3[s+]c2c1 [METHYLENE BLUE ANHYDROUS]
- pIC50 [2]: 6.32

- pIC50 [16]: 7.52 to 8.00
- pIC50 [17]: 6.74 to 7.15
- pIC50 [18]: 7.52 to 8.00
Compound: Cc1[nH]c2ccccc2c1CCNCc1ccc(/C=C/C(=O)NO)cc1 [PANOBINOSTAT]
- pIC50 [15]: 6.74 to 7.15

Compound: COc1ccc2nc3cc(Cl)ccc3c(Nc3cc(CN4CCCC4)c(O)c(CN4CCCC4)c3)c2n1 [PYRONARIDINE]
- pIC50 [6]: 5.77
- pIC50 [7]: 7.54

- pIC50 [19]: 7.96 to 8.10
Compound: CC(/C=C/C(=O)NO)=C\[C@@H](C)C(=O)c1ccc(N(C)C)cc1 [TRICHOSTATIN]
